Reference: patent publication US20060069132A1, “Azolecarboxamide herbicides” (priority 2004, published 2006)

Key:
[1] = system: pigweed; assay: Test B pre-/postemergence herbicide test; format: in vivo, Amaranthus retroflexus; details: for Pigweed plant response rating (0 to 100 scale): 0 = no effect, 100 = complete control; for Pigweed plant response rating (0 to 100 scale) / Plant response rating, Pigweed: preemergence; for Plant response rating, Pigweed: visual rating 0-100, 0 no effect, 100 complete control; for Pigweed plant response rating: postemergence, visual rating, scale 0 (no effect) to 100 (complete control)
Outline: (§1)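 Seeds were planted and treated preemergence with compounds formulated in a non-phytotoxic solvent mixture containing surfactant, while plants at the 1- to 4-leaf stage (2 to 18 cm) received postemergence sprays. Flooded paddy plants were grown to the 2-leaf stage. After 13 to 15 days in a greenhouse, injury was visually rated 0–100 against untreated controls.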

[2] = system: large crabgrass; assay: Test B pre-/postemergence herbicide test; format: in vivo, Digitaria sanguinalis; details: for Crabgrass, Large plant response rating (0 to 100 scale): 0 = no effect, 100 = complete control; for Crabgrass, Large plant response rating (0 to 100 scale) / Plant response rating, Crabgrass, Large: preemergence; for Plant response rating, Crabgrass, Large: visual rating 0-100, 0 no effect, 100 complete control; for Crabgrass, Large plant response rating: postemergence, visual rating, scale 0 (no effect) to 100 (complete control)
Outline: as §1

[3] = system: wild oat; assay: Test B postemergence herbicide test; format: in vivo, Avena fatua; details: postemergence, visual rating, scale 0 (no effect) to 100 (complete control)
Outline: (§2)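 Each value is a visual 0–100 response rating taken against controls 13 to 15 days after treatment in the greenhouse. Plants received formulated chemical postemergence at the 1- to 4-leaf stage or, in flooded paddy, at the 2-leaf stage.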

[4] = system: rice; assay: Test B flooded paddy test; format: in vivo, Oryza sativa; details: 1000 g ai/ha, visual rating, scale 0 to 100 (0 no effect, 100 complete control), 13 to 15 days
Outline: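 Visual ratings, 0 (no effect) to 100 (complete control), made versus controls after 13–15 d greenhouse. Paddy plants treated at 2-leaf stage; postemergence plants at 1- to 4-leaf stage, 2–18 cm tall.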

[5] = system: lambsquarters; assay: Test B pre-/postemergence herbicide test; format: in vivo, Chenopodium album; details: for Lambsquarters plant response rating (0 to 100 scale): 0 = no effect, 100 = complete control; for Lambsquarters plant response rating (0 to 100 scale) / Plant response rating, Lambsquarters: preemergence; for Plant response rating, Lambsquarters: visual rating 0-100, 0 no effect, 100 complete control; for Lambsquarters plant response rating: postemergence, visual rating, scale 0 (no effect) to 100 (complete control)
Outline: as §1

[6] = system: blackgrass; assay: Test B postemergence herbicide test; format: in vivo, Alopecurus myosuroides; details: postemergence, visual rating, scale 0 (no effect) to 100 (complete control)
Outline: (§3)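 Paddy species grown to the 2-leaf stage under flooding; blackgrass sprayed postemergence at 2–18 cm (1- to 4-leaf stage). Plants kept in a greenhouse for 13 to 15 days, then visually rated against controls on 0 (no effect) to 100 (complete control).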

[7] = system: wheat; assay: Test B postemergence herbicide test; format: in vivo, Triticum aestivum; set-up: key to Wheat plant response rating: 0 = no effect, 100 = complete control; details: postemergence, visual rating, scale 0 (no effect) to 100 (complete control)
Outline: as §2

[8] = system: barnyardgrass; assay: Test B pre-/postemergence herbicide test; format: in vivo, Echinochloa crus-galli; details: for Barnyardgrass plant response rating (0 to 100 scale): 0 = no effect, 100 = complete control; for Barnyardgrass plant response rating (0 to 100 scale) / Plant response rating, Barnyardgrass: preemergence; for Plant response rating, Barnyardgrass: visual rating 0-100, 0 no effect, 100 complete control; for Barnyardgrass plant response rating: postemergence, visual rating, scale 0 (no effect) to 100 (complete control)
Outline: (§4)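 Test chemicals in a non-phytotoxic solvent mixture with surfactant were applied preemergence to seeded species and postemergence to plants 2-18 cm tall (1- to 4-leaf stage); rice and barnyardgrass were also tested in a flooded paddy at the 2-leaf stage. Visual rating versus controls after 13-15 days in greenhouse, scale 0 (no effect) to 100 (complete control).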

[9] = system: small flower umbrella sedge; assay: Test B flooded paddy test; format: in vivo, Cyperus difformis; details: 1000 g ai/ha, visual rating, scale 0 to 100 (0 no effect, 100 complete control), 13 to 15 days
Outline: as §3

[10] = system: Surinam grass; assay: Test B pre-/postemergence herbicide test; format: in vivo, Urochloa decumbens; details: for Surinam Grass plant response rating (0 to 100 scale): 0 = no effect, 100 = complete control; for Surinam Grass plant response rating (0 to 100 scale) / Plant response rating, Surinam Grass: preemergence; for Plant response rating, Surinam Grass: visual rating 0-100, 0 no effect, 100 complete control; for Surinam Grass plant response rating: postemergence, visual rating, scale 0 (no effect) to 100 (complete control)
Outline: as §1

[11] = system: velvetleaf; assay: Test B pre-/postemergence herbicide test; format: in vivo, Abutilon theophrasti; details: for Velvetleaf plant response rating (0 to 100 scale): 0 = no effect, 100 = complete control; for Velvetleaf plant response rating (0 to 100 scale) / Plant response rating, Velvetleaf: preemergence; for Plant response rating, Velvetleaf: visual rating 0-100, 0 no effect, 100 complete control; for Velvetleaf plant response rating: postemergence, visual rating, scale 0 (no effect) to 100 (complete control)
Outline: as §1

[12] = system: giant foxtail; assay: Test B pre-/postemergence herbicide test; format: in vivo, Setaria faberi; details: for Foxtail, Giant plant response rating (0 to 100 scale): 0 = no effect, 100 = complete control; for Foxtail, Giant plant response rating (0 to 100 scale) / Plant response rating, Foxtail, Giant: preemergence; for Plant response rating, Foxtail, Giant: visual rating 0-100, 0 no effect, 100 complete control; for Foxtail, Giant plant response rating: postemergence, visual rating, scale 0 (no effect) to 100 (complete control)
Outline: as §1

[13] = system: morningglory; assay: Test B pre-/postemergence herbicide test; format: in vivo, Ipomoea coccinea; details: for Morningglory plant response rating (0 to 100 scale): 0 = no effect, 100 = complete control; for Morningglory plant response rating (0 to 100 scale) / Plant response rating, Morningglory: preemergence; for Plant response rating, Morningglory: visual rating 0-100, 0 no effect, 100 complete control; for Morningglory plant response rating: postemergence, visual rating, scale 0 (no effect) to 100 (complete control)
Outline: as §4

[14] = system: ducksalad; assay: Test B flooded paddy test; format: in vivo, Heteranthera limosa; details: 1000 g ai/ha, visual rating, scale 0 to 100 (0 no effect, 100 complete control), 13 to 15 days
Outline: as §3

[15] = system: corn; assay: Test B pre-/postemergence herbicide test; format: in vivo, Zea mays; details: for Corn plant response rating (0 to 100 scale): 0 = no effect, 100 = complete control; for Corn plant response rating (0 to 100 scale) / Plant response rating, Corn: preemergence; for Plant response rating, Corn: visual rating 0-100, 0 no effect, 100 complete control; for Corn plant response rating: postemergence, visual rating, scale 0 (no effect) to 100 (complete control)
Outline: as §1

CCNC(=O)c1cccc(NC(=O)c2sc(C(C)(C)C)nc2C)c1 [Compound 198]
10: Crabgrass, Large plant response rating ([2]; 125 g ai/ha) | Blackgrass plant response rating ([6]; 500 g ai/ha) | Wheat plant response rating ([7]; 500 g ai/ha) | Surinam Grass plant response rating (0 to 100 scale) ([10]; 125 g ai/ha) | Morningglory plant response rating (0 to 100 scale) ([13]; 125 g ai/ha)
40: Barnyardgrass plant response rating (0 to 100 scale) ([8]; 125 g ai/ha) | Plant response rating, Corn ([15]; 500 g ai/ha)
30: Oat, Wild plant response rating ([3]; 500 g ai/ha) | Barnyardgrass plant response rating ([8]; 500 g ai/ha) | Foxtail, Giant plant response rating ([12]; 500 g ai/ha)
50: Pigweed plant response rating ([1]; 125 g ai/ha) | Pigweed plant response rating ([1]; 500 g ai/ha) | Plant response rating, Surinam Grass ([10]; 500 g ai/ha)
20: Crabgrass, Large plant response rating ([2]; 500 g ai/ha) | Oat, Wild plant response rating ([3]; 125 g ai/ha) | Rice plant response rating [4] | Surinam Grass plant response rating ([10]; 125 g ai/ha) | Surinam Grass plant response rating ([10]; 500 g ai/ha) | Velvetleaf plant response rating ([11]; 125 g ai/ha) | Velvetleaf plant response rating ([11]; 500 g ai/ha) | Foxtail, Giant plant response rating (0 to 100 scale) ([12]; 125 g ai/ha) | Foxtail, Giant plant response rating ([12]; 125 g ai/ha) | Corn plant response rating ([15]; 125 g ai/ha)
70: Lambsquarters plant response rating ([5]; 125 g ai/ha) | Lambsquarters plant response rating ([5]; 500 g ai/ha) | Sedge, Umbrella plant response rating [9] | Ducksalad plant response rating [14] | Corn plant response rating ([15]; 500 g ai/ha)
80: Crabgrass, Large plant response rating (0 to 100 scale) ([2]; 125 g ai/ha) | Plant response rating, Morningglory ([13]; 500 g ai/ha) | Morningglory plant response rating ([13]; 500 g ai/ha)
90: Pigweed plant response rating (0 to 100 scale) ([1]; 125 g ai/ha) | Plant response rating, Barnyardgrass ([8]; 500 g ai/ha)
0: Blackgrass plant response rating ([6]; 125 g ai/ha) | Wheat plant response rating ([7]; 125 g ai/ha) | Barnyardgrass plant response rating ([8]; 125 g ai/ha) | Velvetleaf plant response rating (0 to 100 scale) ([11]; 125 g ai/ha) | Corn plant response rating (0 to 100 scale) ([15]; 125 g ai/ha)
60: Plant response rating, Velvetleaf ([11]; 500 g ai/ha) | Morningglory plant response rating ([13]; 125 g ai/ha)
100: Plant response rating, Pigweed ([1]; 500 g ai/ha) | Plant response rating, Crabgrass, Large ([2]; 500 g ai/ha) | Lambsquarters plant response rating (0 to 100 scale) ([5]; 125 g ai/ha) | Plant response rating, Lambsquarters ([5]; 500 g ai/ha) | Plant response rating, Foxtail, Giant ([12]; 500 g ai/ha)

C=CCNC(=O)c1cccc(NC(=O)c2sc(C(C)(C)C)nc2CC)c1 [Compound 207]
90: Pigweed plant response rating (0 to 100 scale) ([1]; 125 g ai/ha) | Plant response rating, Barnyardgrass ([8]; 500 g ai/ha) | Plant response rating, Foxtail, Giant ([12]; 500 g ai/ha) | Ducksalad plant response rating [14]
20: Crabgrass, Large plant response rating ([2]; 125 g ai/ha) | Crabgrass, Large plant response rating ([2]; 500 g ai/ha) | Oat, Wild plant response rating ([3]; 125 g ai/ha) | Oat, Wild plant response rating ([3]; 500 g ai/ha) | Wheat plant response rating ([7]; 125 g ai/ha) | Wheat plant response rating ([7]; 500 g ai/ha) | Barnyardgrass plant response rating ([8]; 125 g ai/ha) | Barnyardgrass plant response rating ([8]; 500 g ai/ha) | Surinam Grass plant response rating ([10]; 125 g ai/ha) | Surinam Grass plant response rating ([10]; 500 g ai/ha) | Velvetleaf plant response rating (0 to 100 scale) ([11]; 125 g ai/ha) | Velvetleaf plant response rating ([11]; 125 g ai/ha) | Foxtail, Giant plant response rating ([12]; 125 g ai/ha) | Foxtail, Giant plant response rating ([12]; 500 g ai/ha) | Morningglory plant response rating (0 to 100 scale) ([13]; 125 g ai/ha) | Morningglory plant response rating ([13]; 500 g ai/ha) | Corn plant response rating ([15]; 125 g ai/ha) | Corn plant response rating ([15]; 500 g ai/ha)
30: Pigweed plant response rating ([1]; 125 g ai/ha) | Velvetleaf plant response rating ([11]; 500 g ai/ha)
60: Pigweed plant response rating ([1]; 500 g ai/ha) | Rice plant response rating [4] | Plant response rating, Surinam Grass ([10]; 500 g ai/ha) | Plant response rating, Velvetleaf ([11]; 500 g ai/ha)
10: Blackgrass plant response rating ([6]; 500 g ai/ha) | Morningglory plant response rating ([13]; 125 g ai/ha) | Corn plant response rating (0 to 100 scale) ([15]; 125 g ai/ha)
80: Lambsquarters plant response rating (0 to 100 scale) ([5]; 125 g ai/ha) | Lambsquarters plant response rating ([5]; 500 g ai/ha) | Barnyardgrass plant response rating (0 to 100 scale) ([8]; 125 g ai/ha) | Sedge, Umbrella plant response rating [9]
100: Plant response rating, Pigweed ([1]; 500 g ai/ha) | Plant response rating, Crabgrass, Large ([2]; 500 g ai/ha) | Plant response rating, Lambsquarters ([5]; 500 g ai/ha)
0: Blackgrass plant response rating ([6]; 125 g ai/ha)
40: Surinam Grass plant response rating (0 to 100 scale) ([10]; 125 g ai/ha) | Plant response rating, Morningglory ([13]; 500 g ai/ha)
70: Crabgrass, Large plant response rating (0 to 100 scale) ([2]; 125 g ai/ha)
50: Lambsquarters plant response rating ([5]; 125 g ai/ha) | Foxtail, Giant plant response rating (0 to 100 scale) ([12]; 125 g ai/ha) | Plant response rating, Corn ([15]; 500 g ai/ha)
